The text below walks through data of US9018237B2, “Methods for improved wound closure employing olivamine and endothelial cells” (priority 2009, dated 2015).

This experiment relates to human microvascular endothelial cells. Nature of the experiment: in vitro model of wound healing (cell migration), time for 50% of wound to heal. In kind it is cell-based. The text has this: The time for wounds to heal by 50% under the various treatment conditions was quantified.

Turning to `OCCc1ccc(O)c(O)c1` [Hydroxytyrosol], under “hydroxytyrosol alone versus the combination (Table 1)”, the “less effective in wound healing than the present art” value is 30%. Regarding `NCCS(=O)(=O)O` [L-Taurine], under “Table 9, single ingredients, Present Art and Present Art without one ingredient”, the “Time for 50% wound to heal” value amounted to 22.5 h. In the case of `CC(=O)N[C@@H](CS)C(=O)O` [N-acetylcysteine, reference compound], the “effect on time and extent of wound healing (in words)” value (compared to untreated or to the additive effect of the compounds) is “increased the time to 50% healing compared to untreated”.
